Measurements published in paper PMC12339328, “Therapeutic effect and mechanism of gigantol on hyperuricemia” (Frontiers in Endocrinology, 2025).
“And” between values parts separate entries of the source, which are not always exact repeats. Equal entries are not always repeated. Where two headings read alike, the source gives them in different places.

Legend:
[1] = tested on: caspase-1; assay: Caspase-1 protein expression in kidney of HUA mice (Western blot); type: in vivo; settings: gigantol high-dose group (20 mg/kg), vs model group, p < 0.001
[2] = tested on: NLRP3; assay: NLRP3 protein expression in HK-2 cells (Western blot); settings: for NLRP3 / β (reference protein) ratio / NLRP3 protein expression, band value: HK-2, replicates 1-3; for NLRP3 protein level in HK-2 cells: HUA cell model
[3] = tested on: liver tissue in mice with HUA; assay: Liver histopathology of HUA mice (HE staining); type: in vivo; settings: 200×, gigantol 5, 10, 20 mg/kg
From the text: The kidney and liver tissues were fixed with 4% paraformaldehyde solution. After paraffin embedding and sectioning, the paraffin on the slide was removed with xylene and soaked in different concentrations of ethanol and deionized water. The liver and kidney tissues were stained according to the HE staining procedure, and then the morphology of the kidney tissues and liver tissues was observed under the microscope.

[4] = tested on: ASC; assay: ASC protein expression in HK-2 cells (Western blot); settings: for asc / β (reference protein) ratio / asc protein expression, band value: HK-2, replicates 1-3; for ASC protein level in HK-2 cells: HUA cell model
[5] = tested on: GLUT9; assay: GLUT9 protein expression in HK-2 cells (Western blot); settings: for GLUT (GLUT9) / β (reference protein) ratio / GLUT (GLUT9) protein expression, band value: HK-2, replicates 1-3; for GLUT9 protein expression in HK-2 cells: HUA cell model, gigantol 25, 50, 100 µmol/L, especially high-dose (p < 0.001), vs model
[6] = tested on: IL-1β; assay: IL-1β content in HK-2 HUA cell model (ELISA); type: cell-based, human; settings: only the high-dose group showing a downward trend (p < 0.01)
Experimental: (§1) HK-2 cells were treated as described above. The supernatant of the medium was collected, and the levels of proinflammatory cytokines (TNF-α, IL-6, and IL-1β) and the NLRP3 inflammasome component in the supernatant were detected using commercially available ELISA kits according to the manufacturers’ protocols.

[7] = tested on: mice with HUA induced by potassium oxonate; assay: Serum and urine UA, CRE and BUN in HUA mice; type: in vivo
Experimental: On day 6, the mice were transferred to a metabolic cage, given free water and diet, and 24-h urine samples were collected for the determination of UA, CRE, and BUN levels. One hour after the last administration, 2 mL of blood was taken through eyeball extraction, and the mice were killed by euthanasia. Mice were dissected and the livers and kidneys were removed.
(§2) Blood obtained from mice in each group was centrifuged at 3,000 r/min for 15 min in a low-temperature high-speed centrifuge. Then, the serum was separated, and the levels of UA, CRE, and BUN in the serum were measured by the kits. The levels of TNF-α, IL-1β, IL-6, and NLRP3 in serum were detected by ELISA kits. Liver and kidney tissues were homogenized by adding ice-cold saline, and homogenates were centrifuged at 12,000 r/min for 10 min. XOD activity in the supernatant of the liver tissues was measured, and the levels of TNF-α, IL-1β, IL-6, and NLRP3 in the supernatant of the kidney tissues were measures by ELISA kits.

[8] = tested on: XOD; settings: HUA mice; each dose of gigantol (5, 10, 20 mg/kg); vs model group; p < 0.01, p < 0.01, p < 0.001
[9] = tested on: NLRP3; assay: NLRP3 content in HK-2 HUA cell model (ELISA); type: cell-based, human; settings: gigantol 25, 50, 100 µmol/L, dose-dependent
Experimental: as §1

[10] = tested on: IL-6; assay: IL-6 level in HK-2 HUA cell model (ELISA); type: cell-based, human; settings: adenosine and XOD induction; gigantol 25, 50, 100 μmol/L
Experimental: as §1

[11] = tested on: XOD; settings: for xod / β (reference protein) ratio / xod protein expression, band value: AML12, replicates 1-3; for XOD protein expression in AML12 cells: HUA cell model, gigantol 25, 50, 100 µmol/L, vs model group, p < 0.001
[12] = rat, in vivo
Experimental: Whole blood was taken into heparinized tubes at predefined time points (2, 5, 10, 20, and 30 min, and 1, 2, 4, 6, 8, and 12 h) after administration, and plasma was separated by centrifugation and stored at −20°C until testing. […] Whole blood was taken into heparinized tubes at predefined time points (2, 5, 10, 20, and 30 min, and 1, 2, 4, 6, 8, and 12 h) after administration, and plasma was separated by centrifugation and stored at −20°C until testing. […] Pharmacokinetic parameters were calculated by using the pharmacokinetics software WinNonlin 8.1.

[13] = tested on: NLRP3; assay: NLRP3 content in serum and kidney of HUA mice (ELISA); type: in vivo; settings: gigantol low, medium, high dose intragastric, vs model group
Experimental: as §2

[14] = tested on: OAT3; assay: OAT3 protein expression in HK-2 cells (Western blot); settings: for OAT3 / β (reference protein) ratio / OAT3 protein expression, band value: HK-2, replicates 1-3
[15] = target: T1, XOD (Mus musculus, UniProt Q00519); type: in vivo; settings: HUA mice, vs model group
T1 construct: XOD activity in the supernatant of the liver tissues was measured; from tissue; host or cells: liver of male KM mice (hyperuricemia model, potassium oxonate)

[16] = tested on: HK-2 cells; assay: UA level in HK-2 HUA cell model; type: cell-based, human; settings: adenosine + XOD induced; gigantol 25, 50, 100 μmol/L; p < 0.001
[17] = tested on: AML12 cells; assay: UA level in AML12 HUA cell model; type: cell-based, mouse; settings: adenosine + XOD induced; gigantol 25, 50, 100 μmol/L; p < 0.001
[18] = tested on: IL-6; assay: IL-6 level in serum and kidney of HUA mice (ELISA); type: in vivo; settings: HUA mice treated with gigantol; vs model group; p < 0.01
Experimental: as §2

[19] = tested on: ASC; assay: ASC protein expression in kidney of HUA mice (Western blot); type: in vivo; settings: gigantol high-dose group (20 mg/kg), vs model group, p < 0.001
[20] = tested on: XOD; settings: HUA cell model; gigantol 25, 50, 100 μmol/L, dose-dependent; vs model; p < 0.05, p < 0.001, p < 0.001
[21] = tested on: TNF-α; assay: TNF-α level in serum and kidney of HUA mice (ELISA); type: in vivo; settings: HUA mice treated with gigantol; vs model group; p < 0.01
Experimental: as §2

[22] = 50 and 100 µmol/L gigantol, vs model group
[23] = gigantol intervention, especially high-dose group (p < 0.001), vs model
[24] = 24-h urine, after gigantol treatment
[25] = gigantol 5, 10, 20 mg/kg gavage 7 days, vs model group, high dose p < 0.001

T1 sequence (Q00519 whole entry): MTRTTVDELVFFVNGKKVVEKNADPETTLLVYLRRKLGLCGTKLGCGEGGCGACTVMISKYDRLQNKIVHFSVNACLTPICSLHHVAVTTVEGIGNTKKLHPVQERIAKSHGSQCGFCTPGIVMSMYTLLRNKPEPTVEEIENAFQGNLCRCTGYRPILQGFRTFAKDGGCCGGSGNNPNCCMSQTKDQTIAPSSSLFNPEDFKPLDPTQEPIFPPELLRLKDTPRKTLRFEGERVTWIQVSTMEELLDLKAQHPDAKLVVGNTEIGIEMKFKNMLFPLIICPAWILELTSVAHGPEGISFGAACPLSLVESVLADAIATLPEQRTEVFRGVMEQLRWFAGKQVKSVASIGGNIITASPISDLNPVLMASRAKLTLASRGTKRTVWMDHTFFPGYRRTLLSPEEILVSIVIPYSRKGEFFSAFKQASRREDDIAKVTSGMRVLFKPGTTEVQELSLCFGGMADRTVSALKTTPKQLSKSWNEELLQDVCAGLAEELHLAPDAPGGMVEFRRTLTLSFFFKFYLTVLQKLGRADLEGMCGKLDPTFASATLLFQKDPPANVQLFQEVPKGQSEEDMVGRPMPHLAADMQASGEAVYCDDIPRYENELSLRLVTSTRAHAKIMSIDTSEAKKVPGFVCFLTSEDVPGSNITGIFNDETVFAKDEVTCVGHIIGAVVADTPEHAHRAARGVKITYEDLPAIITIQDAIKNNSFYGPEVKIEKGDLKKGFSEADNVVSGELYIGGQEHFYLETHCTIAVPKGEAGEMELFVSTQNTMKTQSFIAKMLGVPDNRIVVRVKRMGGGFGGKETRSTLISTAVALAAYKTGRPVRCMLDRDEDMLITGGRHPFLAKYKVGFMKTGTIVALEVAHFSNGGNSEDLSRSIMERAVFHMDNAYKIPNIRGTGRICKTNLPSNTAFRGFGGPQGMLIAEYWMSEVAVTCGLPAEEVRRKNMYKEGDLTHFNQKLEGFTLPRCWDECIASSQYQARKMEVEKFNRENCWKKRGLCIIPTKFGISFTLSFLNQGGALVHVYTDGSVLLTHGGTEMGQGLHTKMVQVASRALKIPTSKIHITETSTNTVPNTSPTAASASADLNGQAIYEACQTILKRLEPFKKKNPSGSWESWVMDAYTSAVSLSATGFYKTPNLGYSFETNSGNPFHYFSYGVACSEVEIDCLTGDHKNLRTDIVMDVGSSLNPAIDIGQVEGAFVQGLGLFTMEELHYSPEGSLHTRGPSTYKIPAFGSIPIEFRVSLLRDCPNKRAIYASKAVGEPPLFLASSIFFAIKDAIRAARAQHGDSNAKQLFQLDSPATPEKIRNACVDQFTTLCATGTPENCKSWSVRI

Substance: 5-[2-(3-hydroxy-5-methoxyphenyl) ethyl]-2-methoxyphenol [gigantol]
- caspase-1 protein expression in kidney [1]: decreased significantly
- NLRP3 / β (reference protein) ratio ([2]; 中 = gigantol 50 µmol/L): 0.7212 and 0.9246 and 0.7381
- NLRP3 protein expression, band value ([2]; 中 = gigantol 50 µmol/L): 125.385 and 171.712 and 140.12
- NLRP3 / β (reference protein) ratio ([2]; 低 = gigantol 25 µmol/L): 0.7726 and 0.9621 and 1.043
- NLRP3 protein expression, band value ([2]; 低 = gigantol 25 µmol/L): 127.912 and 180.721 and 187.495
- NLRP3 / β (reference protein) ratio ([2]; 高 = gigantol 100 µmol/L): 0.5752 and 0.7261 and 0.6462
- NLRP3 protein expression, band value ([2]; 高 = gigantol 100 µmol/L): 107.093 and 142.123 and 125.837
- NLRP3 protein level in HK-2 cells ([2]; 25 μmol/L gigantol, vs model group): moderately reduced
- NLRP3 protein level in HK-2 cells [2, 22]: significantly reduced
- NLRP3 protein level in HK-2 cells [2, 23]: decreased significantly
- liver histopathology [3]: the atrophy of liver cells significantly improved
- asc / β (reference protein) ratio ([4]; 中 = gigantol 50 µmol/L): 0.7729 and 0.7908 and 0.8759
- asc protein expression, band value ([4]; 中 = gigantol 50 µmol/L): 134.385 and 146.868 and 166.261
- asc / β (reference protein) ratio ([4]; 低 = gigantol 25 µmol/L): 0.9783 and 1.053 and 1.058
- asc protein expression, band value ([4]; 低 = gigantol 25 µmol/L): 161.976 and 197.704 and 190.261
- asc / β (reference protein) ratio ([4]; 高 = gigantol 100 µmol/L): 0.7353 and 0.6853 and 0.7512
- asc protein expression, band value ([4]; 高 = gigantol 100 µmol/L): 136.893 and 134.134 and 146.281
- ASC protein level in HK-2 cells [4, 22]: significantly reduced
- ASC protein level in HK-2 cells [4, 23]: decreased significantly
- GLUT (GLUT9) / β (reference protein) ratio ([5]; 中 = gigantol 50 µmol/L): 0.824 and 0.7786 and 0.7289
- GLUT (GLUT9) protein expression, band value ([5]; 中 = gigantol 50 µmol/L): 143.264 and 144.598 and 138.372
- GLUT (GLUT9) / β (reference protein) ratio ([5]; 低 = gigantol 25 µmol/L): 0.9479 and 0.8166 and 0.8642
- GLUT (GLUT9) protein expression, band value ([5]; 低 = gigantol 25 µmol/L): 156.942 and 153.38 and 155.361
- GLUT (GLUT9) / β (reference protein) ratio ([5]; 高 = gigantol 100 µmol/L): 0.7095 and 0.5035 and 0.629
- GLUT (GLUT9) protein expression, band value ([5]; 高 = gigantol 100 µmol/L): 132.094 and 98.555 and 122.472
- GLUT9 protein expression in HK-2 cells [5]: significantly decreased
- GLUT9 protein expression in HK-2 cells ([5]; listed as Gigantol): decreased
- inhibitory effect on IL-1β in HK-2 cells [6]: relatively weak
- urine BUN level [7, 24]: increased
- urine CRE level [7, 24]: increased
- urine UA content ([7]; 24-h urine, gigantol 5, 10, 20 mg/kg gavage, vs model group, p < 0.01): increased significantly in a dose-dependent manner
- serum BUN level [7, 25]: significantly reduced
- serum CRE level [7, 25]: significantly reduced
- serum UA level [7, 25]: significantly reduced
- XOD protein expression in liver [8]: significantly decreased
- NLRP3 in HK-2 cells [9]: significantly reduced
- IL-6 level in HK-2 cells [10]: tended to decrease dose-dependently
- xod / β (reference protein) ratio ([11]; 中 = gigantol 50 µmol/L): 1.517 and 1.501 and 1.526
- xod protein expression, band value ([11]; 中 = gigantol 50 µmol/L): 128.129 and 199.117 and 168.261
- xod / β (reference protein) ratio ([11]; 低 = gigantol 25 µmol/L): 1.791 and 1.55 and 1.796
- xod protein expression, band value ([11]; 低 = gigantol 25 µmol/L): 141.242 and 241.421 and 177.271
- xod / β (reference protein) ratio ([11]; 高 = gigantol 100 µmol/L): 1.329 and 1.446 and 1.393
- xod protein expression, band value ([11]; 高 = gigantol 100 µmol/L): 108.633 and 187.088 and 176.298
- XOD protein expression in AML12 cells [11]: significantly decreased
- XOD protein expression in AML12 cells ([11]; listed as Gigantol): downregulated
- XOD protein expression in AML12 cells ([11]; listed as gigatol): significantly reduced in a dose-dependent manner
- F [12]: 16.82%
- time of second peak of blood concentration [12]: approximately 2 h
- NLRP3 level in kidney [13]: decreased
- NLRP3 level in serum [13]: decreased
- OAT3 / β (reference protein) ratio ([14]; 中 = gigantol 50 µmol/L): 1.0464 and 0.924 and 0.8748
- OAT3 protein expression, band value ([14]; 中 = gigantol 50 µmol/L): 181.929 and 171.604 and 166.063
- OAT3 / β (reference protein) ratio ([14]; 低 = gigantol 25 µmol/L): 0.8292 and 0.8811 and 0.9428
- OAT3 protein expression, band value ([14]; 低 = gigantol 25 µmol/L): 137.293 and 165.504 and 169.481
- OAT3 / β (reference protein) ratio ([14]; 高 = gigantol 100 µmol/L): 0.9571 and 0.9652 and 1.021
- OAT3 protein expression, band value ([14]; 高 = gigantol 100 µmol/L): 178.19 and 188.909 and 198.88
- OAT3 protein level in HK-2 cells ([14]; HUA cell model, 50 and 100 µmol/L, vs model group): significantly increased
- OAT3 protein expression in HK-2 cells ([14]; HUA cell model, gigantol 25, 50, 100 µmol/L, dose-dependent): increase
- XOD activity in mice liver ([15]; gigantol high dose (20 mg/kg), p < 0.001): inhibited
- XOD activity in mice liver ([15]; gigantol low and middle doses (5, 10 mg/kg), p > 0.05): no significant difference
- UA level in HK-2 cells [16]: suppressed
- UA level in AML12 cells [17]: suppressed
- renal IL-6 level [18]: significantly lower
- serum IL-6 level [18]: significantly lower
- ASC protein expression in kidney [19]: decreased significantly
- XOD activity in AML12 cells [20]: downregulated
- renal TNF-α level [21]: significantly lower
- serum TNF-α level [21]: significantly lower
